Data set [1] deals with T1, Keap1/Nrf2 (Homo sapiens, UniProt Q14145). The data set can be described thus: Inhibition of recombinant human Keap1 Kelch domain (321 to 609 residues) expressed in Escherichia coli BL21 (DE3)pLysS cells/Nrf2 (unknown origin) protein-protein interaction using FITC-LDEETGEFL-NH2 as fluorescent substrate preincubated with compound for 30 mins followed by substrate addition and measured after 1 hr by fluorescence polarization assay relative to control.

Data set [2] relates to NCM460D. The data set can be described thus: Upregulation of NQO1 mRNA expression in human NCM460D cells at 1 to 100 uM measured after 24 hrs by qRT-PCR analysis. Format: functional, cell-based. The settings on record: dose 1-100 µM. On the technique in general: Quantitative PCR measures a nucleic acid by following its amplification.
The target of data set [3] is T1, Keap1/Nrf2. In words: Inhibition of His-tagged Keap1 kelch domain/Nrf2 (unknown origin) protein-protein interaction using FITC-LDEETGEFL-NH2 peptide as substrate preincubated for 30 mins followed by substrate addition and measured after 1 hr by TR-FRET assay. A general note: TR-FRET usually uses a lanthanide donor and a delayed reading to cut background.
A short description of data set [4]: Lipophilicity, logD of the compound at pH 7.4. Format: physicochemical. Particulars: buffer.
In data set [5] the test system is NCM460D. The data set can be described thus: Upregulation of GSTM3 mRNA expression in human NCM460D cells at 1 to 100 uM measured after 24 hrs by qRT-PCR analysis. In kind it is functional, cell-based. The settings on record: dose 1-100 µM.
Data set [6] concerns NCM460D. The data set can be described thus: Upregulation of HMOX1 mRNA expression in human NCM460D cells at 1 to 100 uM measured after 24 hrs by qRT-PCR analysis. In kind it is functional, cell-based. Particulars: dose 1-100 µM.
A short description of data set [7]: Lipophilicity, logD of the compound at pH 6.5. Particulars: buffer. Format: physicochemical.
A short description of data set [8]: Upregulation of NQO1 mRNA expression in human NCM460D cells assessed as fold change in gene expression at 100 uM measured after 24 hrs by qRT-PCR analysis relative to control. Format: functional.

Activity calls are given as the source filed them. The rule behind the calls is not given here.

T1 sequence (Q16236 whole entry, the tested form may be a part): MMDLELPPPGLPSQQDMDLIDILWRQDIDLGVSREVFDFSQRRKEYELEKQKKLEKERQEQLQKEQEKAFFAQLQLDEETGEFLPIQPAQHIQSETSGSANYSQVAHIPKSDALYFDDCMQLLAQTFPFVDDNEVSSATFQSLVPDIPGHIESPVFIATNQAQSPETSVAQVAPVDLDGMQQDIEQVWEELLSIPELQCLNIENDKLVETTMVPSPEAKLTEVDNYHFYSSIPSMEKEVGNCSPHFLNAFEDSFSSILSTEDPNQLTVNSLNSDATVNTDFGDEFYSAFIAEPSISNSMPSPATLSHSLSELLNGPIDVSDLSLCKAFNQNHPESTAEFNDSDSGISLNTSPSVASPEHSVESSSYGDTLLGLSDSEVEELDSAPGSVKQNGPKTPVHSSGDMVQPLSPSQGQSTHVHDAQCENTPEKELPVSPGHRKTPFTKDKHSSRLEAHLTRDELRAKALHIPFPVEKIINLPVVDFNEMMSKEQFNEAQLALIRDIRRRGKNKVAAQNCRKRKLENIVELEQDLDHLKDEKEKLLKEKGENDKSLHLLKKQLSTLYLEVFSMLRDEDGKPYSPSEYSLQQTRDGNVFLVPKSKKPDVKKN
T1 sequence (Q14145 whole entry, the tested form may be a part): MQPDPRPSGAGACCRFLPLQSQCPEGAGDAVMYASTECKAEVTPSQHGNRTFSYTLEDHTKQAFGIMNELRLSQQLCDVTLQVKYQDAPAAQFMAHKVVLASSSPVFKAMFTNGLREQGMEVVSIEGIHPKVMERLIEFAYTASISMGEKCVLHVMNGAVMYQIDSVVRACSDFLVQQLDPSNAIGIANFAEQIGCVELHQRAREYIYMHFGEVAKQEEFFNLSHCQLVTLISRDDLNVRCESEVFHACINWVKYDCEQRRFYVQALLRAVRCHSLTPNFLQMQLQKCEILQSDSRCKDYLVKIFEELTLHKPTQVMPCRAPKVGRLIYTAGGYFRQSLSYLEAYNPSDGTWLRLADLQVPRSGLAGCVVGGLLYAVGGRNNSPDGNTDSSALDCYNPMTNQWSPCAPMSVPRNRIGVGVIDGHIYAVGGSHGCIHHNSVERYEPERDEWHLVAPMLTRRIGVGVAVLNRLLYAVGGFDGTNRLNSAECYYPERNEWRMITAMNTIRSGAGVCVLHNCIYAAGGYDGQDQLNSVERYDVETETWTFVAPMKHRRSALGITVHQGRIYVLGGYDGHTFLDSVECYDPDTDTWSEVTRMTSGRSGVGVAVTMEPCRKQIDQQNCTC

As usually defined, the IC50 is the midpoint of a concentration-inhibition curve. Consider `COc1ccc(S(=O)(=O)N(CC(=O)O)c2ccc(N(CC(=O)O)S(=O)(=O)c3ccc(OC)cc3)c(OCCCc3ccccc3)c2)cc1`, for which the IC50 at Keap1/Nrf2 [1] amounted to 950 nM.
Same read-out and setting: the figure for `COc1ccc(COc2cc(N(CC(=O)O)S(=O)(=O)c3ccc(OC)cc3)ccc2N(CC(=O)O)S(=O)(=O)c2ccc(OC)cc2)cc1` is 770 nM.
Take `COc1ccc(S(=O)(=O)N(CC(=O)O)c2ccc(N(CC(=O)O)S(=O)(=O)c3ccc(OC)cc3)c(Oc3ccc4ccccc4c3)c2)cc1`: the IC50 on Keap1/Nrf2 [1] came out at 890 nM.
As for `COc1ccc(S(=O)(=O)N(CC(=O)O)c2ccc(N(CC(=O)O)S(=O)(=O)c3ccc(OC)cc3)c(OCc3ccc(-c4ccccc4)cc3)c2)cc1`, the IC50 on Keap1/Nrf2 [1] stood at 390 nM.
As to `COc1ccc(S(=O)(=O)N(CC(=O)O)c2ccc(N(CC(=O)O)S(=O)(=O)c3ccc(OC)cc3)c(COc3ccccc3)c2)cc1`, the concentration for half-maximal inhibition (IC50) on Keap1/Nrf2 [1] is 2620 nM.
Take `Cc1ccc(S(=O)(=O)N(CC(=O)O)c2ccc(N(CC(=O)O)S(=O)(=O)c3ccc(C)cc3)c(OCc3ccc(F)cc3)c2)cc1`: the IC50 on Keap1/Nrf2 [1] turned out to be 450 nM.
`COc1ccc(S(=O)(=O)N(CC(=O)O)c2ccc(N(CC(=O)O)S(=O)(=O)c3ccc(OC)cc3)c(OCc3cccnc3)c2)cc1`: on Keap1/Nrf2 [1], the IC50 worked out at 760 nM.
As usually defined, the logD is lipophilicity at a set pH, counting ionised and neutral species. Consider `Cc1ccc(S(=O)(=O)N(CC(=O)O)c2cc(OCc3ccc(F)cc3)c(N(CC(=O)O)S(=O)(=O)c3ccc(C)cc3)c3ccccc23)cc1`, for which the outcome with NCM460D [2], in the data set on NCM460D [5] and in the data set with NCM460D [6] was Active. In addition, the IC50 against Keap1/Nrf2 [3] is 14.2 nM; on Keap1/Nrf2 [1], 65 nM. For the same compound, the logD turned out to be 0.33 in data set [4] (read-out: logD) and 1.94 in data set [7]. Besides, the “fold change (FC)” value in data set [8] stood at 15.
For `COc1ccc(S(=O)(=O)N(CC(=O)O)c2ccc(N(CC(=O)O)S(=O)(=O)c3ccc(OC)cc3)c(Oc3ccc(-c4ccccc4)cc3)c2)cc1`, the 50% inhibitory concentration (IC50) at Keap1/Nrf2 [1] stood at 1190 nM.
For `O=C(O)CN(c1ccc(N(CC(=O)O)S(=O)(=O)c2ccc(-c3ccccc3)cc2)c(OCc2ccccc2)c1)S(=O)(=O)c1ccc(-c2ccccc2)cc1`, the IC50 on Keap1/Nrf2 [1] came to 750 nM.
On to `Cc1ccc(S(=O)(=O)N(c2ccc(N([C@@H](C)C(=O)O)S(=O)(=O)c3ccc(C)cc3)c(OCc3ccc(F)cc3)c2)[C@@H](C)C(=O)O)cc1`, for which, at Keap1/Nrf2 [1], the IC50 stood at 1270 nM.
The same measure, in the same setting: the figure for `Cc1ccc(S(=O)(=O)N(Cc2nnn[nH]2)c2ccc(N(Cc3nnn[nH]3)S(=O)(=O)c3ccc(C)cc3)c(OCc3ccc(F)cc3)c2)cc1` is 3920 nM.
Consider `COc1ccc(S(=O)(=O)N(CC(=O)O)c2ccc(N(CC(=O)O)S(=O)(=O)c3ccc(OC)cc3)c(OCc3ccc4ccccc4c3)c2)cc1`, for which the IC50 on Keap1/Nrf2 [1] came out at 480 nM.
Still for that read-out and setting: the same measure for `COc1ccc(S(=O)(=O)N(CC(=O)O)c2ccc(N(CC(=O)O)S(=O)(=O)c3ccc(OC)cc3)c(OCc3ccc(Oc4ccccc4)cc3)c2)cc1`: 830 nM.
For `Cc1ccc(S(=O)(=O)N(CC(=O)O)c2ccc(N(CC(=O)O)S(=O)(=O)c3ccc(C)cc3)c(OCc3ccccc3)c2)cc1`, the IC50 on Keap1/Nrf2 [1] was determined as 450 nM.
With `O=C(O)CN(c1ccc(N(CC(=O)O)S(=O)(=O)c2ccc(Br)cc2)c(OCc2ccccc2)c1)S(=O)(=O)c1ccc(Br)cc1`, the IC50 on Keap1/Nrf2 [1] is 590 nM.
Consider `COc1ccc(S(=O)(=O)N(CC(=O)O)c2ccc(N(CC(=O)O)S(=O)(=O)c3ccc(OC)cc3)c3ccccc23)cc1`, for which the figures for the logD in data set [4] and in data set [7] were -2.93 and -1.38, respectively.
With `COc1ccc(S(=O)(=O)N(CC(=O)O)c2ccc(N(CC(=O)O)S(=O)(=O)c3ccc(OC)cc3)c(OCc3cccc4ccccc34)c2)cc1`, the IC50 at Keap1/Nrf2 [1] was determined as 790 nM.
Consider `COc1ccc(S(=O)(=O)N(CC(=O)O)c2ccc(N(CC(=O)O)S(=O)(=O)c3ccc(OC)cc3)c(N(C)Cc3ccccc3)c2)cc1`, for which, at Keap1/Nrf2 [1], the IC50 turned out to be 6170 nM.
Turning to `Cc1cc(C)c(S(=O)(=O)N(CC(=O)O)c2ccc(N(CC(=O)O)S(=O)(=O)c3c(C)cc(C)cc3C)c(OCc3ccc(F)cc3)c2)c(C)c1`, at Keap1/Nrf2 [1], the IC50 turned out to be 3730 nM.
Take `O=C(O)CN(c1ccc(N(CC(=O)O)S(=O)(=O)c2ccc(F)cc2)c(OCc2ccccc2)c1)S(=O)(=O)c1ccc(F)cc1`: the IC50 at Keap1/Nrf2 [1] amounted to 2410 nM.
For the compound `Cc1ccc(S(=O)(=O)N(CC(=O)O)c2ccc(N(CC(=O)O)S(=O)(=O)c3ccc(C)cc3)c(OCc3ccc4ccccc4c3)c2)cc1`, on Keap1/Nrf2 [1], the concentration for half-maximal inhibition (IC50) turned out to be 380 nM.
In the case of `Cc1cccc(S(=O)(=O)N(CC(=O)O)c2ccc(N(CC(=O)O)S(=O)(=O)c3cccc(C)c3)c(OCc3ccccc3)c2)c1`, the IC50 at Keap1/Nrf2 [1] amounted to 1000 nM.
As for `O=C(O)CN(c1ccc(N(CC(=O)O)S(=O)(=O)c2ccc(C(F)(F)F)cc2)c(OCc2ccccc2)c1)S(=O)(=O)c1ccc(C(F)(F)F)cc1`, the IC50 on Keap1/Nrf2 [1] was determined as 1760 nM.
As for `COc1ccc(S(=O)(=O)N(CC(=O)O)c2ccc(N(CC(=O)O)S(=O)(=O)c3ccc(OC)cc3)c(-c3ccccc3)c2)cc1`, at Keap1/Nrf2 [1], the IC50 was 3470 nM.
In the case of `COc1ccc(S(=O)(=O)N(CC(=O)O)c2ccc(N(CC(=O)O)S(=O)(=O)c3ccc(OC)cc3)c(OCCc3ccccc3)c2)cc1`, at Keap1/Nrf2 [1], the IC50 was found to be 1020 nM.
In the case of `COc1ccc(S(=O)(=O)N(CC(=O)O)c2ccc(N(CC(=O)O)S(=O)(=O)c3ccc(OC)cc3)c(OCc3ccc(F)cc3)c2)cc1`, the IC50 on Keap1/Nrf2 [1] was determined as 910 nM.
For `COc1ccc(S(=O)(=O)N(CC(=O)O)c2ccc(N(CC(=O)O)S(=O)(=O)c3ccc(OC)cc3)c(OCc3ccc(C)cc3)c2)cc1`, the IC50 at Keap1/Nrf2 [1] came to 620 nM.
`Cc1ccc(S(=O)(=O)N(CC(=O)O)c2ccc(N(CC(=O)O)S(=O)(=O)c3ccc(C)cc3)c(OCc3ccc(-c4ccccc4)cc3)c2)cc1`: the IC50 on Keap1/Nrf2 [1] was 440 nM.

Source of the values: ChEMBL document CHEMBL5120835, “Structure-activity relationships of 1,4-bis(arylsulfonamido)-benzene or naphthalene-N,N'-diacetic acids with varying C2-substituents as inhibitors of Keap1-Nrf2 protein-protein interaction” (Eur J Med Chem, 2022).
